Assays:
[1] = Half-life estimated by annual decline rates of serum PFAAs (first-order model); format: in vivo, human
Excerpt: Olsen et al.[21] found linear relationship between the logarithm of serum PFAAs concentration and time, and a first order model was adopted to estimate the half-lives of PFAAs. The elimination of PFAAs in humans was also described with the following equation: […]
If we set C(t) as 1/2C0, then the half-life
where k is the elimination rate constant. We calculated k using two approaches in the present study. In the first approach, k is defined as Cltotal/Vd, where Vd stands for the volume of distribution of PFAAs in the human body. Cltotal represents the total daily PFAAs clearance in the human body; for men and women older than 50, it refers to renal clearance, while for young women, it is defined as the sum of menstrual clearance and renal clearance. To keep consistency with other studies, Vd of PFOS and PFHxS were set at 230 mL kg^−1, and Vd of PFOA was set at 170 mL kg^−1 in this study. In the second approach, k is defined as the average annual decline rates of PFAAs in workers who participated in this study.
Serum PFAAs of workers were sequentially measured for 5 years, and they fluctuated during our sampling period, although different serum PFAAs decreased in certain years. […] For PFOA, 31 out of 42 workers decreased in the period of 2011–2012, and the serum PFOA concentration dropped by 41%. […] We assumed that there were no new inputs of PFAAs in these workers, and thus k in Eq (2) was set as the average annual serum PFAA decline rate. The half-lives of PFHxS, PFOA, and PFOS estimated by Eq (2) were 3.6, 1.7, and 1.9 years.

[2] = PFAA concentration in serum of occupational workers (HPLC-ESI/MS/MS); format: in vivo, human; set-up: Serum PFAA level: unit: ng/mL
Procedure: The selected fluorochemical plant (Henxin Chemical Plant) in this study is one of the largest producers of PFOS-related chemicals in China and is located in Yingcheng, Hubei province. Perfluoroalkyl sulfonic acids (PFSAs) and perfluorotertiary amines are synthesized through an electro-chemical fluorination (ECF) process. We collected paired serum and urine samples from the occupational workers in the plant for five consecutive years, and the sampling activities were carried out in Nov. 2008, Nov. 2009, Nov. 2010, Dec. 2011, and Dec 2012, respectively. The Medical Research Ethics Committee, School of Medicine, Jianghan University, approved the ethics of this study, and all methods were performed in accordance with the relevant guidelines and regulations, moreover, all volunteers gave written informed consent. Demographic information of the donors, including gender, age, length of service, and work assignment, was collected with a questionnaire (Table S1). The sampled population included a total of 302 occupational workers, of which there were 89 female and 213 male participants. In total, 302 serum and 274 urine samples were collected.
The participants were told not to eat breakfast before the sampling, and morning urine samples and blood samples were collected. Serum was separated from the blood by centrifugation at 1100 × g at 4 °C for 10 min and then placed on ice. Serum samples were then transferred to our laboratory on the same day and stored in polypropylene containers at −20 °C until analysis.
All pre-treatment methods and instrument analysis of PFAAs in serum and urine samples are based on previous studies with minor modifications (see Supplementary Information)[3][31]. Based on the PFAA profiles in environmental matrices around the same plant in our previous study, only 3 main PFAAs, PFHxS, PFOA, and PFOS, were analyzed in the obtained serum and urine samples. Instrumental analysis of the PFAAs was performed by a HPLC-ESI/MS/MS system (HPLC: Waters 2695, MS: Waters Quattro Premier XE). The limits of detection (LODs) of PFHxS, PFOA, and PFOS were 0.020, 0.063, and 0.018 ng mL^−1 for serum samples and 0.008, 0.025, and 0.007 ng mL^−1 for urine samples, respectively. A procedural blank was performed for every batch of seven samples, and all of the blank levels were below the LODs. […] Details of quality assurance and quality control of the chemical analysis can be found in the Supplementary Information.

[3] = Fabric finishing agent department, N 8

In the case of O=S(=O)(O)C(F)(F)C(F)(F)C(F)(F)C(F)(F)C(F)(F)C(F)(F)F [PFHxS, perfluorohexane sulfonate], the “Annual drop of serum concentration” value ([1]; 2009 to 2010, 37 workers) is reported as 19%, the half-life ([1]; human, k = average annual serum decline rate, no new inputs assumed, two time points) is reported as 1310 days and the “Serum concentration, mean” value ([2]; All workers, N 302) is reported as 1855 ng/mL. For the same molecule, the “Serum concentration, median” value ([2]; All workers, N 302) was 764 ng/mL, the “Serum PFAA level” value ([2]; Electrolytic Department, length of service 1-3 years) was 960 and the “Serum PFAA level” value ([2]; Electrolytic Department, length of service < 1 year) was 197. For the same molecule, the “Serum PFAA level” value ([2]; Electrolytic Department, length of service >3 years) was 1116, the “Serum concentration, mean” value ([2]; Electrolytic department, N 74) was 1469 ng/mL and the “Serum concentration, median” value ([2]; Electrolytic department, N 74) was 1011 ng/mL. The “Serum concentration, range” value ([2]; Electrolytic department, N 74) was 46.6 to 6759 ng/mL, the “Serum concentration, mean” value [2, 3] was 1956 ng/mL and the “Serum concentration, median” value [2, 3] was 1768 ng/mL. For the same molecule, the “Serum concentration, range” value [2, 3] was 550 to 4690 ng/mL, the “Serum PFAA level” value ([2]; Management Office, length of service 1-3 years) was 65.1 and the “Serum PFAA level” value ([2]; Management Office, length of service < 1 year) was 8.5. The “Serum PFAA level” value ([2]; Management Office, length of service >3 years) was 186, the “Serum concentration, mean” value ([2]; Management office, N 92) was 331 ng/mL and the “Serum concentration, median” value ([2]; Management office, N 92) was 169 ng/mL. The “Serum PFAA level” value ([2]; Research Building, length of service 1-3 years) was 946, the “Serum PFAA level” value ([2]; Research Building, length of service < 1 year) was 26 and the “Serum PFAA level” value ([2]; Research Building, length of service >3 years) was 607. The “Serum concentration, mean” value ([2]; Research building, N 27) was 842 ng/mL, the “Serum concentration, median” value ([2]; Research building, N 27) was 506 ng/mL and the “Serum concentration, range” value ([2]; Research building, N 27) was 3.0 to 3360 ng/mL. The “Serum PFAA level” value ([2]; Sulfonation Department, length of service 1-3 years) was 1477, the “Serum PFAA level” value ([2]; Sulfonation Department, length of service < 1 year) was 1129 and the “Serum PFAA level” value ([2]; Sulfonation Department, length of service >3 years) was 3087. For the same molecule, the “Serum concentration, mean” value ([2]; Sulfonation department, N 101) was 3778 ng/mL, the “Serum concentration, median” value ([2]; Sulfonation department, N 101) was 2250 ng/mL and the “Serum concentration, geometric mean” value ([2]; all occupational workers) was 628 ng/mL. The “Average serum concentration (Average ± SD)” value ([2]; female workers, n 89) was 1,044 ± 1718 ng mL^−1, the concentration at 2009 calendar year ([2]; human, serum, 2009, 37 workers, read-out: Serum concentration in workers (decline estimate)) was 455 ng/mL and the concentration at 2010 calendar year ([2]; human, serum, 2010, 37 workers, read-out: Serum concentration in workers (decline estimate)) was 366 ng/mL. The concentration at 2008 calendar year ([2]; human, serum, other: occupational exposure, 46 workers sampled at least three times, 2008, read-out: Serum concentration, GM) was 328 ng/mL, the concentration at 2012 calendar year ([2]; human, serum, other: occupational exposure, 46 workers sampled at least three times, 2012, read-out: Serum concentration, GM) was 1670 ng/mL and the “Average serum concentration (Average ± SD)” value ([2]; male workers, n 213) was 2,191 ± 3,050 ng mL^−1. The “Serum concentration, GM” value ([2]; workers with service length 1–3 years) was 521 ng/mL, the “Serum concentration, GM” value ([2]; workers with service length less than 1 year) was 212 ng/mL and the “Serum concentration, GM” value ([2]; workers with service length more than 3 years) was 830 ng/mL.

Source: PMC5131319, “Occurrence, temporal trends, and half-lives of perfluoroalkyl acids (PFAAs) in occupational workers in China” (Scientific Reports, 2016)
